Assay results from publication PMC6130518, “Investigation of the effective components of the flowers of Trollius chinensis from the perspectives of intestinal bacterial transformation and intestinal absorption” (Pharmaceutical Biology, 2017).

System: Caco-2 cells
Assay: MTT assay, non-toxic dose range
Assay type: cell-based, human
Conditions: 4 h, positive control
Procedure: The Caco-2 cells were seeded into 96-well plates as they were in logarithmic growth phase. Each well was added with 100 μL of the cell suspension (8.0 × 10^3 cells/mL) and incubated in 5% CO2 and constant temperature (37 °C) and humidity in the incubator. […] The cells were incubated under the same conditions for 4 h; then, 100 μL of 3-(4,5-dimethylthiazolzyl)-2,5-diphenyl tetrazolium bromide (MTT, Amresco, Radnor, PA) solution at the concentration of 0.5 mg/mL took the place of HBSS. After the cells were incubated under the same conditions for 4 h, the supernatant was replaced by 150 μL of dimethyl sulphoxide (DMSO, Sigma Chemical Co., Deisenhofen, Germany); then, the cells were shaken for 10 min. The absorption of the samples was measured on a microplate reader (BioTek Instruments, Inc., Winooski, VT) at the wavelength of 570 nm.
The following formula was used to calculate the cell survival rate=A/A0×100%, wherein, A represented the average absorbance value of the experiment groups, and A0 represented the average absorbance value of the control group.

How did the “survival rate of the Caco-2 cells” value (0.02 mg/L) turn out when CC(=O)O[C@H]1C(=O)[C@@]2(C)[C@H]([C@H](OC(=O)c3ccccc3)[C@]3(O)C[C@H](OC(=O)[C@H](O)[C@@H](NC(=O)c4ccccc4)c4ccccc4)C(C)=C1C3(C)C)[C@]1(OC(C)=O)CO[C@@H]1C[C@@H]2O [paclitaxel] was run?
Its value is 67.3%.

What about the “survival rate of the Caco-2 cells” value (0.04 mg/L) of the same compound?
Its value is 45.5%.

What about the “survival rate of the Caco-2 cells” value (0.08 mg/L) of the same compound?
The value was 37.4%.
